Entries after “also recorded” stand apart in the source; their conditions may differ.

The source of these data is article PMC10994559 (PLOS Neglected Tropical Diseases, 2024).

The test system of one data set is L. major promastigotes. As to the kind of experiment: L. major promastigote viability, resazurin reduction. It is filed as cell-based, Leishmania major. To be noted: Leishmania major; for EC50: dose response, triplicate. From the text: (§1) The infectivity of the parasites was boosted by passaging in Balb/c mice and culturing the infected lymph nodes after six weeks. L. infantum (MHOM / BR / 76 / M4192) parasite was passaged in the same media formulation with 0.5% urine.
For orientation: Alamar Blue is a resazurin reagent that responds to reducing activity.

The subject of data set [1] is L. infantum promastigotes. Nature of the data set: L. infantum promastigote viability, resazurin reduction. It is filed as cell-based, Leishmania infantum. The settings on record: Leishmania infantum, 72 h; for viability at 2.5 µM: read-out: Residual viability, L. infantum promastigote (2.5 µM); for viability at 25 µM: read-out: Residual viability, L. infantum promastigote (25 µM).
From the text: as §1

Data set [2] has as its system L. major axenic amastigotes. Nature of the data set: L. major axenic amastigote viability, resazurin reduction. To be noted: Leishmania major; for viability at 2.5 µM / viability at 25 µM: 72 h; for viability at 2.5 µM: read-out: Residual viability, L.major amastigote (2.5 µM); for viability at 25 µM: read-out: Residual viability, L.major amastigote (25 µM); for EC50: read-out: EC50 L. major axenic amastigote. The method in brief: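 Axenic L. major LV561 amastigotes were grown in Grace medium with 20% FCS, pH 5.4, at 33°C and seeded at 0.5x10^5 cells/well with compounds for 72 h. Resazurin was then added for 6 h and fluorescence read at ex 550/em 590 nm; hits were retested at 2.5 μM.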

A further data set concerns T. cruzi trypomastigotes. Nature of the data set: T. cruzi viability, resazurin reduction. The format is cell-based, Trypanosoma cruzi. To be noted: 72 h; for viability at 2.5 µM / viability at 25 µM: Trypanosoma cruzi; for viability at 2.5 µM: read-out: Residual viability, T.cruzi (2.5 µM), 2.5 µM, 72 h; for viability at 25 µM: read-out: Residual viability, T.cruzi (25 µM), 25 µM, 72 h. The gist of the method: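 Y-strain trypomastigotes kept in supplemented liver infusion tryptose broth with 10% FCS, pH 7.2, at 28°C. Viability by fluorescence resazurin reduction; single-point screen at 2.5 μM, then 18-concentration dose response. Amphotericin B as control drug.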

A short description of data set [3]: Cytotoxicity assay J774, resazurin reduction. It is filed as cell-based, murine. The settings on record: mouse, J774 macrophage cells, cytotoxicity, 72 h; for viability at 72 h, 2.5 µM: read-out: Residual viability, J774 (2.5 µM); for viability at 72 h, 25 µM: read-out: Residual viability, J774 (25 µM). The gist of the method: (§2)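 J774 and HepG2 cells were seeded at 0.5x10^5 cell/well and exposed to serially diluted compounds for 72 h at 37°C, 5% CO2. Viability was read by fluorescence resazurin reduction (λEx 550 nm, λEm 590 nm).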

In data set [4] the test system is Murine macrophage cells (J774). Nature of the data set: Cytotoxicity assay J774, resazurin reduction. It is filed as cell-based. To be noted: cytotoxicity, 72 h. The method in brief:
as §2

The test system of the next data set is L. major. Nature of the data set: Cutaneous leishmaniasis mouse model: lymph node parasite burden (qPCR) and footpad swelling. The format is in vivo, Balb/c mice. To be noted: for Parasite load in popliteal lymph nodes (qPCR kDNA) vs DMSO control: PHT-39 13.75 mg/kg i.p. daily or s.c. every other day; for Parasite load in popliteal lymph nodes (qPCR kDNA) vs DMSO control / Footpad swelling vs DMSO control: AmB 8 mg/kg i.p.; for Footpad swelling vs DMSO control: day 21 post challenge. On the procedure:
Female Balb/c mice, aged 6–8 weeks, were purchased from the breeding stock in Czech Republic (Animalab, Czech Republic). Animals were kept under standard conditions according to European ethical guidelines for experimental animals.
L. major metacyclic promastigotes were prepared from a five day stationary phase culture through Ficoll gradient centrifugation according to previous studies with minor changes: Briefly, a 20% and 10% Ficoll gradient were prepared in PBS and M199 media, respectively and placed in a 14 ml falcon tube. Then, 1x10^9 L. major promastigotes were loaded on top of gradient and centrifuged. Metacyclic parasites were collected between two layers. Four groups of mice (n = 6) were challenged by subcutaneous injection of 2x10^6 stationary phase metacyclic promastigotes (50 μl in PBS) into the left hind footpad. Two weeks after infectious challenge, animals were treated by i.p or intralesional (s.c) PHT-39 injection (13.75 mg/kg body weight), daily or every other day, respectively, for ten days. AmB (8 mg/kg body weight) was applied as positive control drug (i.p injection for ten days) and 5% DMSO in distilled water was applied as negative control (s.c injection for ten days) (Table 1).
Every four days after the challenge, body weight was monitored and footpad swelling changes were measured (Footpad swelling = (height + width)/2) with a metric caliper (Kroeplin, IP65, D-series, external measuring gauge).
After the 10 days course of treatment all animals were sacrificed, and popliteal lymph nodes of each infected footpad were collected for parasite load determination. Genomic DNA was extracted from the lymph nodes (DNeasy Blood and Tissue kit, Qiagen). Equal concentration of samples (125 ng) was applied to quantify leishmania kDNA with primers RV1(forward: 5’-[…]-3’) and RV2 (reverse: 5’-CCACCTG […]-3’). qPCR data was normalized using the murine house-keeping gene GAPDH amplified with primers (forward:5’[…]3’; reverse: 5’[…]3’) in parallel using Maxima SYBR green qPCR master (Thermo). qPCR was performed using Biorad CFX96 device with 95°C/ 10 min (initial denaturation), then 95°C/15s (denaturation), 60°C /30s (annealing) and 72°C/ 40s (extension) over 40 cycles. For ΔCT calculation of samples, every CT were subtracted from the same on GAPDH. Then, ΔΔCT of each group was normalized according to negative control group (DMSO).
The most significant requirement of an anti-leishmanial drug is its ability to reduce the parasite burden in the infected host. […] Briefly, four groups of 6–8 weeks Balb/c mice were challenged with 2 x 10^6 L. major promastigotes subcutaneously injected into the hind footpad. Treatment started after two weeks when a wound started to form. Two groups were treated with PHT-39 compound at doses of 13.75 mg/kg either via i.p route, daily, or s.c route, every other day for 10 days. One group received a daily dosage of AmB as a control, and another infected non-treated group was included in the study. After 10 days, popliteal lymph nodes were collected to assess parasite burden and immune response stimulation was studied in spleen cell culture supernatants.
A general note: Real-time PCR tracks product formation cycle by cycle.

The mark [5] stands for this setting: PHT-39 13.75 mg/kg i.p. or s.c.

As for `C[C@@H]1[C@H](O)[C@@H](C)/C=C/C=C/C=C/C=C/C=C/C=C/C=C/[C@H](O[C@@H]2O[C@H](C)[C@@H](O)[C@H](N)[C@@H]2O)C[C@@H]2O[C@](O)(C[C@@H](O)C[C@@H](O)[C@H](O)CC[C@@H](O)C[C@@H](O)CC(=O)O[C@H]1C)C[C@H](O)[C@H]2C(=O)O` [AmB, amphotericin B, reference compound], the EC50 (commonly the concentration at which the effect is half-maximal) in the data set on L. major promastigotes was 0.2 µM; in data set [2] it was 0.3 µM; in data set [4] (Mus musculus, J774, 72 h), more than 10 µM; in data set [4], more than 16 µM. In addition, the viability (as a rule, a read-out of living cells in per cent, often relative to untreated cells) at 2.5 µM in data set [1] came out at 2.55 ± 0.17%; in data set [2] it was 2.71 ± 1.02%; with T. cruzi trypomastigotes, 8.07 ± 0.38%. The viability at 25 µM in data set [1] came to 5.4 ± 0.73%; in data set [2] it was 0.33 ± 2.12%; in the data set on T. cruzi trypomastigotes, 7.4%. In the data set on T. cruzi trypomastigotes (25 µM), the “Residual viability, T.cruzi (25 µM)” value was found to be 7.37±1.09%. For the same molecule, in data set [3], the viability at 72 h, 2.5 µM is 101 ± 11.8%. Moreover, in data set [3], the viability at 72 h, 25 µM was 57.73 ± 0.52%. For the same molecule, the “Parasite load in popliteal lymph nodes (qPCR kDNA) vs DMSO control” value in the data set on L. major (10 days) was “reduce the parasite load significantly; also recorded: reduction of parasite load in the AmB group was significant”. Moreover, in the data set with L. major (setting [5]), the “Footpad swelling vs DMSO control” value is “reduced significantly; also recorded: effectively reduced the swelling”.
For the molecule `CC[C@@H](C)[C@H](c1nc2ccccc2n1Cc1cn(-c2ccc(C(F)(F)F)cc2)nn1)N1C(=O)c2ccccc2C1=O` [PHT-39], the viability at 25 µM with L. major promastigotes (72 h, read-out: Residual viability, L.major promastigote (25 µM)) was found to be 16.6 ± 1.6%; in data set [1] it was 7.71 ± 1.03%; in data set [2] it was 2.6%; in the data set on T. cruzi trypomastigotes, 31.5 ± 1.51%. The EC50 in the data set on L. major promastigotes was 5.9 ± 1.8 µM; in data set [2], 2.6 ± 1.8 µM; in data set [4] (Mus musculus, J774, 72 h) it was more than 16 µM. The viability at 2.5 µM is 58.8 ± 1.22% in data set [1], 62.1 ± 3.43% in data set [2] and 57.6 ± 1.04% in the data set with T. cruzi trypomastigotes. Moreover, the viability at 72 h, 2.5 µM in data set [3] amounted to 98.3 ± 2.92%. Moreover, the viability at 72 h, 25 µM in data set [3] was 68 ± 9.09%. In addition, the “Parasite load in popliteal lymph nodes (qPCR kDNA) vs DMSO control” value in the data set on L. major (10 days) is “did not show a significant difference; also recorded: not significantly changed”. For the same molecule, the “Elimination of L. major infection in cutaneous leishmaniasis model” value in the data set on L. major (PHT-39 13.75 mg/kg i.p. or s.c., 10 days, 13.75 mg/kg) is given as “unable to eradicate L. major infection; also recorded: failed to eliminate the Leishmania infection”. Also, the “Parasite burden in lymph nodes” value in the data set with L. major (PHT-39 13.75 mg/kg s.c. every other day) was “lower but insignificant parasite burden”. Moreover, in the data set with L. major (setting [5]), the “Footpad swelling vs DMSO control” value was “Neither of the test groups showed significant difference with the DMSO control; also recorded: did not show any significant changes”.
